For orientation: IC50 means the point on the concentration scale where inhibition reaches its midpoint. Read a high IC50 as weaker potency in that assay.

Values joined by “and” are separate entries in the source; they are usually repeats but may differ in a detail not shown here. Identical values can stand only once. No end group written: not given here.

The values that follow come from US20070105779A1, “Isolated, ssx-2 and ssx-2 related peptides useful as hla binders and ctl epitopes, and uses thereof” (priority 2002, published 2007).

Test [1] addresses T1, HLA-A2 (Homo sapiens, UniProt P04439, D140Y/D185E/D98H/E176V/E277Q/G131W/G231S/I119V/I121R/I166T/I218V/L300P/L318F/N151K/N90K/P208A/P217A/Q86G/Q94H/R138H/R169H/T345S).
T1 construct: using T2 cells, because these express HLA-A2; endogenous in cells; host or cells: T2 cells
Put plainly: functional competition assay for peptide binding to HLA-A2 (inhibition of tyrosinase 368-376 recognition by CTL clone LAU 156/34 on T2 cells). The format is cell-based. Particulars: for IC50: competitor peptide concentration for 50% inhibition of target cell lysis. On the procedure: T cell recognition by clone LAU 50/4D7 and binding to HLA-A2 by these peptides were determined experimentally. Peptide binding to HLA-A2 was determined in a functional competition assay.

The test system of test [2] is T cell clone LAU 50/4D7. Put plainly: 51Cr release assay, T2 cells pulsed with serial dilutions of peptide, recognition by CTL clone LAU 50/4D7. It is filed as cell-based, human. The settings on record: for EC50: T2 cells pulsed with peptide, read-out: 50% maximal lysis; for recognition by CTL clone LAU 50/4D7 (in words): 51Cr release assay. On the procedure:
CTL clone LAU 50/4D7 was used in a ^51Cr release assay using standard methods. In brief, cells of target cell line Me275, which is a melanoma line derived from the same patient as was LAU 50/4D7, were labeled with ^51Cr for one hour at 37° C., as were control cells “T2.” This line, more accurately referred to as “CEMx721.T2,” is described by Salter, et al., Immunogenetics 21:235-248 (1985).
Cells were washed, three times, and then were incubated with the LAU 50/4D7 cells, at various effector:target ratios (0.1/1, 1/1, 10/1, 100/1) Four hours after incubation at 37° C., chromium in the supernatant was measured. Percent specific lysis was calculated as: [formula]
To determine T cell recognition of the peptides, standard ^51Cr release assays were performed using T2 cells pulsed with serial dilutions of each peptide. The peptide dose required to induce half maximal lysis was determined.

The subject of test [3] is T cell clone LAU50/4D7. The test is described as follows: lysis assay, T2 cells pulsed with 1 μM peptide, T cell clone LAU50/4D7. The format is cell-based, human. The settings on record: peptide 1 μM, 37° C. 1 hour, T2 targets, 4 hours with T cells. The protocol: In these assays, T2 cells were used as the target, and were incubated with each of the listed peptides, at a concentration of 1 μM, at 37° C. for 1 hour. The T2 cells were then washed to remove excess peptides, and the T cells were incubated with the peptide pulsed target T2 cells for 4 hours at 37° C.

In test [4] the test system is LAU 50/4D7. The test is described as follows: 51Cr release assay with twelve known HLA-A2 binders, peptide specificity of LAU 50/4D7. Particulars: HLA-A2+ target cells, peptide added after 51Cr labeling. It is filed as cell-based, human. The protocol: In these assays, following ^51Cr labeling of the HLA-A2^+ target cells, peptides were added and then lysis was determined, as described supra.

Where [5] appears, read: relative to SEQ ID NO: 1 (=1), concentration for 50% inhibition of target cell lysis.
[6] abbreviates: second table, similar assays, relative to SEQ ID NO: 1.
The mark [7] stands for this setting: relative to SEQ ID NO: 1 (=1), peptide dose for half maximal lysis, T2 cells, clone LAU 50/4D7.

With `CC[C@H](C)[C@H](NC(=O)[C@H](CCCCN)NC(=O)[C@@H]1CCCN1C(=O)[C@H](C)NC(=O)[C@H](C)NC(=O)[C@H](C)N)C(=O)N[C@@H](Cc1ccccc1)C(=O)N[C@@H](C)C(=O)N[C@@H](C)C(=O)O` [SEQ ID NO: 6], the IC50 in test [1] was 100 nM. Moreover, the figures for the “Relative Binding” value in test [1] (setting [5]), in test [1] (relative to SEQ ID NO: 17 (=1)) and in test [1] (setting [6]) were 0.2, 2 and 0.2, respectively. In addition, the EC50 in test [2] (clone LAU 50/4D7) was more than 100 nM. In addition, the “Relative Recognition” value was 10^−5 in test [2] (setting [7]), <10^−5 in test [2] (relative to SEQ ID NO: 17 (=1)) and <10^−5 in test [2] (setting [6]).
In the case of `CC[C@H](C)[C@H](NC(=O)[C@H](CCCCN)NC(=O)[C@H](CCC(=O)O)NC(=O)[C@H](CO)NC(=O)[C@H](C)NC(=O)[C@@H](N)CCCCN)C(=O)N[C@@H](Cc1ccccc1)C(=O)N[C@@H](Cc1ccc(O)cc1)C(=O)N[C@H](C(=O)O)C(C)C` [SEQ ID NO: 17, reference compound], in test [3], the “% Lysis” value is 70% and 68%. In test [2], the “recognition by CTL clone LAU 50/4D7 (in words)” value (shortened to “recognition … (in words)”) is listed as “in the same range as that of SEQ ID NO: 1”. In test [2] (clone LAU 50/4D7), the EC50 was determined as 0.06 nM.
In test [1], AAAAKIFYA [SEQ ID NO: 3] showed an IC50 of 133 nM. For the same compound, the entries for the “Relative Binding” value in test [1] (setting [5]), in test [1] (relative to SEQ ID NO: 17 (=1)) and in test [1] (setting [6]) were 0.16, 1.5 and 0.16, respectively. The EC50 in test [2] (clone LAU 50/4D7) turned out to be 0.2 nM. Also, the “Relative Recognition” value in test [2] (setting [7]) is 0.1; in test [2] (relative to SEQ ID NO: 17 (=1)) it was 0.3; in test [2] (setting [6]), 0.1.
In test [1], AAAPAIFYA [SEQ ID NO: 4] had a concentration for half-maximal inhibition (IC50) of 22 nM. Further, the entries for the “Relative Binding” value in test [1] (setting [5]), in test [1] (relative to SEQ ID NO: 17 (=1)) and in test [1] (setting [6]) were 0.9, 9 and 0.9, respectively. Besides, in test [2] (clone LAU 50/4D7), the EC50 is more than 100 nM. Further, the results for the “Relative Recognition” value in test [2] (setting [7]), in test [2] (relative to SEQ ID NO: 17 (=1)) and in test [2] (setting [6]) were <10^−5, <10^−5 and <10^−6, respectively.
With AAAPKAFYA [SEQ ID NO: 5], the concentration for half-maximal inhibition (IC50) in test [1] is 200 nM. Besides, the “Relative Binding” value in test [1] (setting [5]) came to 0.1; in test [1] (relative to SEQ ID NO: 17 (=1)), 1; in test [1] (setting [6]) it was 0.1. The EC50 in test [2] (clone LAU 50/4D7) is 0.3 nM. Further, the “Relative Recognition” value stood at 0.05 in test [2] (setting [7]), 0.2 in test [2] (relative to SEQ ID NO: 17 (=1)) and 0.06 in test [2] (setting [6]).
As for AAAPKIFYA [SEQ ID NO: 1], in test [1], the concentration for half-maximal inhibition (IC50) was 20 nM. Also, the entries for the “Relative Binding” value in test [1] (setting [5]) and in test [1] (relative to SEQ ID NO: 17 (=1)) were 1 and 10, respectively. Also, the figures for the “recognition … (in words)” value in test [2] and in test [2] (listed as 1) were “most active” and “at least equal to the natural peptide”, respectively. In addition, the EC50 in test [2] (clone LAU 50/4D7) was 0.02 nM. The “Relative Recognition” value in test [2] (setting [7]) was determined as 1; in test [2] (relative to SEQ ID NO: 17 (=1)), 3.
AAGPKIFYA [SEQ ID NO: 2] returned an IC50 in test [1] of 286 nM. Moreover, the entries for the “Relative Binding” value in test [1] (setting [5]) and in test [1] (relative to SEQ ID NO: 17 (=1)) were 0.07 and 0.7, respectively. In addition, in test [2] (clone LAU 50/4D7), the EC50 was 2 nM. Besides, the “Relative Recognition” value turned out to be 0.01 in test [2] (setting [7]) and 0.03 in test [2] (relative to SEQ ID NO: 17 (=1)).
As for AASEKIFYV [SEQ ID NO: 18], in test [2], the “recognition … (in words)” value is recorded as “at least equal to the natural peptide”. Moreover, in test [2] (clone LAU 50/4D7), the EC50 came out at 0.06 nM. In addition, the Relative Recognition in test [2] (relative to SEQ ID NO: 17 (=1)) came out at 1.
Turning to “GLYDGMEHL [SEQ ID NO: 35, derives from MAGE-A10; HLA-A2; negative control]”, the “% Lysis” value in test [3] was 2%.
As to “NY-ESO-1157-165: known HLA-A2 binder peptide”, in test [4], the “recognition of known HLA-A2 presented peptides by LAU 50/4D7” value was “failed to recognize”.
The same measure, in the same setting: the result for “gp100208-217: known HLA-A2 binder peptide (TITDQVPFSV; UniProt P40967 208-217, looked up, fragment)” reads “failed to recognize”; that for “gp100280-288: known HLA-A2 binder peptide”, “failed to recognize”.
The same measure, in the same setting: the result for “tyrosinase1-9: known HLA-A2 binder peptide (MLLAVLYCL; UniProt P14679 1-9, looked up, fragment)” reads “failed to recognize”.
